Assay results reported in article PMC9841576, “Characterisation of C101248: A novel selective THIK-1 channel inhibitor for the modulation of microglial NLRP3-inflammasome” (Neuropharmacology, 2023).

Columns and labels:
PKA (h) = PKA (h) (Homo sapiens, UniProt P17612); assay: Kinase selectivity; assay type: biochemical
From the text: (§1) Supplement mmc1.docx, table 1 | column: IC50 (μM)

ROCK-1 (h) = ROCK-1 (h) (Homo sapiens, UniProt Q13464); assay: Kinase selectivity; assay type: biochemical
From the text: as §1

Lck (h) = Lck (h) (Homo sapiens, UniProt P06239); assay: Kinase selectivity; assay type: biochemical
Chain of Lck (h) (P06239 whole entry): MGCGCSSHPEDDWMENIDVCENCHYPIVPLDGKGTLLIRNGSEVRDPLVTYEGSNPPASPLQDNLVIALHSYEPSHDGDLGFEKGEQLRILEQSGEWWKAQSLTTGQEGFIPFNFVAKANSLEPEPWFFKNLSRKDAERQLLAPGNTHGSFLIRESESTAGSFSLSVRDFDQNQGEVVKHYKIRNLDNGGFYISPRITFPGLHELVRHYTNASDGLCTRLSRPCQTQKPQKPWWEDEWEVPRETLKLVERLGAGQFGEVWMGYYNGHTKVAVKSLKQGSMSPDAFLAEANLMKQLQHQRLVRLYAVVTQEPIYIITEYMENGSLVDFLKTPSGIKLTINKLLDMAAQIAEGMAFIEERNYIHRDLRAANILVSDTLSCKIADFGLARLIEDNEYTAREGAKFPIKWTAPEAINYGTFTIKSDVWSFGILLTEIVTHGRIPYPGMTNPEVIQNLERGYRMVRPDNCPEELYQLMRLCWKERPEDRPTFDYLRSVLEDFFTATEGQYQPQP
From the text: as §1

p70S6K (h) = p70S6K (h) (Homo sapiens, UniProt P23443); assay: Kinase selectivity; assay type: biochemical
Chain of p70S6K (h) (P23443 whole entry): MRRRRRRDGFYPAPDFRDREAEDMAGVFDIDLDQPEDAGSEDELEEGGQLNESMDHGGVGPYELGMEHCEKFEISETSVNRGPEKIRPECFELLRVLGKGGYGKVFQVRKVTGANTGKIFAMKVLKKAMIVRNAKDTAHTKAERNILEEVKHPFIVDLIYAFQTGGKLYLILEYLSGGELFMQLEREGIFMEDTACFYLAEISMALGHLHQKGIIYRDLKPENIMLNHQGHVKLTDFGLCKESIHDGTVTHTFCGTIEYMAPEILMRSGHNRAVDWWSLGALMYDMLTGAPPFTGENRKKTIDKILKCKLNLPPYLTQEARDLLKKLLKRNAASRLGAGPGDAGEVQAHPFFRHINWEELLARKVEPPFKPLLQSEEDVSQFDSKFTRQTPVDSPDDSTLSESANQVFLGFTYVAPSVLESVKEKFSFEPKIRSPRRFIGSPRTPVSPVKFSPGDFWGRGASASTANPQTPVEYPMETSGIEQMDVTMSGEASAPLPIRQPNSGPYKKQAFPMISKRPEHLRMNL
From the text: as §1

Syk (h) = Syk (h) (Homo sapiens, UniProt P43405); assay: Kinase selectivity; assay type: biochemical
From the text: as §1

GSK3β (h) = GSK3β (h) (Homo sapiens, UniProt P49841); assay: Kinase selectivity; assay type: biochemical
From the text: as §1

ROCK-2 (h) = ROCK-2 (h) (Homo sapiens, UniProt O75116); assay: Kinase selectivity; assay type: biochemical
Chain of ROCK-2 (h) (O75116 whole entry): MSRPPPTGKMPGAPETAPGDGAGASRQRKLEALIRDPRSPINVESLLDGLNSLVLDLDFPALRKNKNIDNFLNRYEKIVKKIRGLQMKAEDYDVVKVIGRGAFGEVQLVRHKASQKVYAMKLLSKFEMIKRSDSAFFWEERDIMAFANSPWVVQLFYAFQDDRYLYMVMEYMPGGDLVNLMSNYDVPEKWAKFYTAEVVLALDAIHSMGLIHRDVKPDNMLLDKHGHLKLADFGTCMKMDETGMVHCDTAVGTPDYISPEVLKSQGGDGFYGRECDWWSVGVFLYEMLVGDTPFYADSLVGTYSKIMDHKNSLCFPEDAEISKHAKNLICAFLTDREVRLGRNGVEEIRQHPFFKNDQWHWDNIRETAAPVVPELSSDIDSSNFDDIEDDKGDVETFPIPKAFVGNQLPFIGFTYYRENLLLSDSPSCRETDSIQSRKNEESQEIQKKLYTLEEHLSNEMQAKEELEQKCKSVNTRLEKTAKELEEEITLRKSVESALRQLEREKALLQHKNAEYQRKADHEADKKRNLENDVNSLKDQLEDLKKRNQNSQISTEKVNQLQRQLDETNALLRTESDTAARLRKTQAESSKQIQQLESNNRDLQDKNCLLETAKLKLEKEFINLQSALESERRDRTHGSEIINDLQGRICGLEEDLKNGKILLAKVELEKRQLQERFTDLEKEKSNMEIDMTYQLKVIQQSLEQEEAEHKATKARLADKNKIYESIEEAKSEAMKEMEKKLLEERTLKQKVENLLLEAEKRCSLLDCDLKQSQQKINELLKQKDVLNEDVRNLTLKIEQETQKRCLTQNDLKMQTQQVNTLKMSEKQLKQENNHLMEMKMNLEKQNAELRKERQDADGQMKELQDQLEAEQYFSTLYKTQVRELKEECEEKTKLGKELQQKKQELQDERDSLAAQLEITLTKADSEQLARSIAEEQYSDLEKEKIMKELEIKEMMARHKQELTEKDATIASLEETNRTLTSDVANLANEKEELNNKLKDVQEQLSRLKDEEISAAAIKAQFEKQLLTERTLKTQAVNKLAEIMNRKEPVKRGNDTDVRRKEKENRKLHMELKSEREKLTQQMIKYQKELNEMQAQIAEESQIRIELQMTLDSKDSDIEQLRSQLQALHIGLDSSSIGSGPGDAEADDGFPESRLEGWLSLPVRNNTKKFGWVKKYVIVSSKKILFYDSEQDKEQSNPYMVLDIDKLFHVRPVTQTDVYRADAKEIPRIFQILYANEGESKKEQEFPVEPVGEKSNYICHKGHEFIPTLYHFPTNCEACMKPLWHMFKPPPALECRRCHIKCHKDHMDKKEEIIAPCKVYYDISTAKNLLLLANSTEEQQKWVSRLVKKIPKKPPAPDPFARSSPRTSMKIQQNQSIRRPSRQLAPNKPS
From the text: as §1

CNS PK study in rats = assay type: in vivo; settings: Sprague Dawley, rat, brain (unbound) / plasma (unbound), 10 or 30 mg/kg oral, 1, 2 or 4 h post dose, read-out: Kpu,u
Experimental: In CNS PK studies, rodents (C57BL/6 mice or Sprague Dawley rats) were administered C101248 by oral gavage at 10 or 30 mg/kg. At specified timepoints post dose (0.5, 1, 2 or 4 h), blood samples were collected and processed to plasma (centrifugation at 5000 rpm, 4 °C for 10 min). Immediately following blood withdrawal, cerebrospinal fluid (CSF) samples were collected from the cisterna magna, whole body perfusion was conducted, and brain samples were collected and weighed. Samples were stored frozen at −80 ± 10 °C until analysis. Plasma, CSF, and brain samples were analysed using a fit for purpose bioanalytical method (LC-MS/MS) against a calibration curve containing QC samples. Brain:plasma and CSF:plasma were calculated based on brain concentration/plasma concentration at the same timepoint. Unbound partition coefficient (Kpu,u) values were calculated based on unbound brain concentration/unbound plasma concentration at the same timepoint. Unbound concentrations were derived by adjusting plasma concentrations for the fraction unbound in plasma based on in vitro plasma protein binging (PPB) values and brain concentrations for the unbound fraction in brain tissue based on in vitro brain tissue binding (BTB) values.

TREK-1 = target: T1, TREK-1 (Homo sapiens, UniProt O95069); assay: FLIPR thallium influx assay, HEK-hTREK-1 cells; assay type: cell-based; settings: HEK-hTREK-1, at 30 μM, compared to TPA controls; read-out: inhibition of constitutive activity
T1 construct: expressed in transfected cells
T1 sequence (O95069 whole entry): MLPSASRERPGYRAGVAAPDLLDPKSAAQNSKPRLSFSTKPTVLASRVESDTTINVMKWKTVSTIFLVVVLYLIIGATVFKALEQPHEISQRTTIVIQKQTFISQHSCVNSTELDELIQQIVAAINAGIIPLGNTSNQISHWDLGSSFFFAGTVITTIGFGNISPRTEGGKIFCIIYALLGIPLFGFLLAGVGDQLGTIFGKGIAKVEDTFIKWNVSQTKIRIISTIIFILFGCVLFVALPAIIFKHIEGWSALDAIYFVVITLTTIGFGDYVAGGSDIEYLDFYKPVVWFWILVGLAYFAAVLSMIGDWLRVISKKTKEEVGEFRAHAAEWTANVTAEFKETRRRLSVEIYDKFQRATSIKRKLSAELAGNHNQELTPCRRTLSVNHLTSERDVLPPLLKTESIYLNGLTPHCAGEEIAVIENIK
Experimental: (§2) HEK-293 cells were transfected with human THIK-1, TREK-1, TWIK-2, or mouse THIK-1 cDNA cloned into pcDNA3.1, using either Fugene HD transfection reagent (Promega) or electroporation (MaxCyte STX instrument). Cells stably expressing the relevant genes were selected based on resistance to 500 μg/ml geneticin (Gibco). For human THIK-1 and TWIK-2 expressing cells, monoclonal lines were isolated by limited dilution cloning; mouse THIK-1 and human TREK-1 expressing cells were maintained as polyclonal pools. The HEK-293 pools and monoclones stably expressing the relevant genes were maintained in DMEM (Life Technologies), supplemented with 10% FCIII (HyClone, Fetal clone III) and 500 μg/ml geneticin. A CHO-Kv2.1 cell line was purchased from Millipore (accession NM_004975) and maintained in F12 (Life Technologies), supplemented with 10% FCSIII (Thermo Scientific) and 500 μg/ml geneticin (Life Technologies). […]
(§3) A fluorescence-based thallium influx assay (Molecular Devices potassium assay kit) was used to monitor channel activity. […] Using a fluorescent imaging plate reader (FLIPR) tetra plate reader, 15 μl thallium stimulus solution was added to the cell plate and the fluorescence signal recorded every second for 1 min (excitation: 470–495 nm, emission: 515–575 nm).

Kv2.1 = target: T2, Kv2.1 (Homo sapiens, UniProt Q14721); assay: FLIPR thallium influx assay, potassium sulphate stimulated CHO-Kv2.1 cells; assay type: cell-based; settings: potassium sulphate stimulated CHO-Kv2.1, at 30 μM; read-out: inhibition of thallium flux
T2 construct: host or cells: CHO
T2 sequence (Q14721 whole entry): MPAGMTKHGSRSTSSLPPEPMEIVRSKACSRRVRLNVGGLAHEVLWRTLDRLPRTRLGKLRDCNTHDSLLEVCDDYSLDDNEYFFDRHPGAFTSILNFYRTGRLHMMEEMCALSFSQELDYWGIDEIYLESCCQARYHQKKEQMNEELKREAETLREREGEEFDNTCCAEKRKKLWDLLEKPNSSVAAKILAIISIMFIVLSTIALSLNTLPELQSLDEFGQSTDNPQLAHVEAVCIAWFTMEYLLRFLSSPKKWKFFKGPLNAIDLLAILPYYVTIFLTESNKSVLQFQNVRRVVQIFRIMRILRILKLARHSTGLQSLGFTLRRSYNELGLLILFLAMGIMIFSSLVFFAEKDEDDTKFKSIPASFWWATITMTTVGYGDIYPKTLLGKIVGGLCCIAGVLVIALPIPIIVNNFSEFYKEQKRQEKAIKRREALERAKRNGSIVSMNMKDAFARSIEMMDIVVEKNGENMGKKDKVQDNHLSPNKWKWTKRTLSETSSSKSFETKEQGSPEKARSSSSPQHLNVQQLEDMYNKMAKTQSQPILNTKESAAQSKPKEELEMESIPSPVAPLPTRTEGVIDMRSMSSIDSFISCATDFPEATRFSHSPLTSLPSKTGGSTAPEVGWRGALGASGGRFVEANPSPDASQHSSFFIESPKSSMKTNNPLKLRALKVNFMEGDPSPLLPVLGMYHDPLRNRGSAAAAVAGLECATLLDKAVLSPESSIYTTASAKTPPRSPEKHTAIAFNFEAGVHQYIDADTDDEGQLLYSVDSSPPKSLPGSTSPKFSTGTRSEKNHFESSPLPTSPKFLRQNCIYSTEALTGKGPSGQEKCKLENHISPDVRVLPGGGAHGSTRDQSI
Experimental: as §2, §3

Chain of ROCK-1 (h) (Q13464 whole entry): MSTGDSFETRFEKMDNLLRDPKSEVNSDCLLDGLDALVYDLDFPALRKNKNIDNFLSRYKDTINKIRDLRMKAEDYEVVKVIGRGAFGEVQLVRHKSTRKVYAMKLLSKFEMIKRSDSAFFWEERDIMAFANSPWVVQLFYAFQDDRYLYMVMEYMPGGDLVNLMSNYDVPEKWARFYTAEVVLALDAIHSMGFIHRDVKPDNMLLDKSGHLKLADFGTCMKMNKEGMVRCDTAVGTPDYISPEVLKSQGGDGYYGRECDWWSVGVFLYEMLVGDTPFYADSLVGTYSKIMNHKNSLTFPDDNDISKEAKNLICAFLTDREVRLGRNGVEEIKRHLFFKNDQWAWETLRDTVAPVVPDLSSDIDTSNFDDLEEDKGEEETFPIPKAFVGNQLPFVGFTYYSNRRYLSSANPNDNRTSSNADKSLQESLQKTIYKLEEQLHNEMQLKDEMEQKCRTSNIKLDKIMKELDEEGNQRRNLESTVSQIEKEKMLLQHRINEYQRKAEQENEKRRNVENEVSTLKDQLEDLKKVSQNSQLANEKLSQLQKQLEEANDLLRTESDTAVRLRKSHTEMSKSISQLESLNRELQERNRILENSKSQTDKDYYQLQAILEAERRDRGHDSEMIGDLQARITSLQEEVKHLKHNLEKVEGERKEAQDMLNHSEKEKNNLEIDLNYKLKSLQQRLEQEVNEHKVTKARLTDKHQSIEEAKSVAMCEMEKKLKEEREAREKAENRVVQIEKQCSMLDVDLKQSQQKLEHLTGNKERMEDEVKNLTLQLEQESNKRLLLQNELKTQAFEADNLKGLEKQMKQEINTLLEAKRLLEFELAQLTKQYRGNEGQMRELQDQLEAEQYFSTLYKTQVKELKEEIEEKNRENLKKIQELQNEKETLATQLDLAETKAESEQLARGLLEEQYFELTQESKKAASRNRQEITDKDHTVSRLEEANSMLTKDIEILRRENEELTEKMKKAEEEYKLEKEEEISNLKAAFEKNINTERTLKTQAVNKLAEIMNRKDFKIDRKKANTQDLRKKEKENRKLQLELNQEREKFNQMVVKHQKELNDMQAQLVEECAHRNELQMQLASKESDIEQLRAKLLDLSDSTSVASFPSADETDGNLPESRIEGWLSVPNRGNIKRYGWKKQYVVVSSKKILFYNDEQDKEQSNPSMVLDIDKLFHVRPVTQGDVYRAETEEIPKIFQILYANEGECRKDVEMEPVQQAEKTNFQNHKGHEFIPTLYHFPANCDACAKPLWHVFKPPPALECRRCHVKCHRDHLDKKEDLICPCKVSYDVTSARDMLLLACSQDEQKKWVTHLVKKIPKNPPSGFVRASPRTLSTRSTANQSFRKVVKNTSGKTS

IC50 (PKA (h)): > 10 µM
IC50 (ROCK-1 (h)): > 10 µM
IC50 (Lck (h)): > 10 µM
IC50 (p70S6K (h)): > 10 µM
IC50 (Syk (h)): > 10 µM
IC50 (GSK3β (h)): > 10 µM
IC50 (ROCK-2 (h)): > 10 µM
Kp (CNS PK study in rats): 0.55 to 0.95
inhibition at 30 µM (TREK-1): 18%
inhibition at 30 µM (Kv2.1): -3%
Structure (SMILES): Nc1nonc1-c1nc2ccccc2n1Cc1ccncc1 [C101248]
